Values joined by “and” are separate entries in the source; they are usually repeats but may differ in a detail not shown here. Equal values may be shown once. Inconclusive results and toxic doses are left out. Rule as the data show it: active = T/C of 150% or more; inactive = T/C below 125%.
Test system: L1210 leukemia ip in BDF1 mice, survival T/C
Experiment: NCI In Vivo Anticancer Drug Screen. Data for tumor model L1210 Leukemia (intraperitoneal) in B6D2F1 (BDF1) mice
Settings: endpoint: mean survival time, higher = longer survival
Procedure, shortened: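 Mice bearing the transplanted tumor received compound or vehicle. Survival of the treated group was divided by that of the vehicle-treated control group to give the ratio.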

[1] = dose: 100.0 mg/kg/injection, schedule: Q04DX002 (ip), vehicle: Klucel (hydroxypropylcellulose) (HPC)
[2] = dose: 200.0 mg/kg/injection, schedule: Q04DX002 (ip), vehicle: Klucel (hydroxypropylcellulose) (HPC)
[3] = dose: 400.0 mg/kg/injection, schedule: Q04DX002 (ip), vehicle: Klucel (hydroxypropylcellulose) (HPC)
[4] = dose: 100.0 mg/kg/injection, schedule: Q01DX001 (ip), vehicle: saline with Tween-80
[5] = dose: 100.0 mg/kg/injection, schedule: Q01DX009 (ip), vehicle: saline with Tween-80
[6] = dose: 100.0 mg/kg/injection, schedule: Q04DX002 (ip), vehicle: saline with Tween-80
[7] = dose: 100.0 mg/kg/injection, schedule: Q04DX003 (ip), vehicle: saline with Tween-80
[8] = dose: 200.0 mg/kg/injection, schedule: Q01DX001 (ip), vehicle: saline with Tween-80
[9] = dose: 200.0 mg/kg/injection, schedule: Q01DX009 (ip), vehicle: saline with Tween-80
[10] = dose: 200.0 mg/kg/injection, schedule: Q04DX002 (ip), vehicle: saline with Tween-80
[11] = dose: 200.0 mg/kg/injection, schedule: Q04DX003 (ip), vehicle: saline with Tween-80
[12] = dose: 400.0 mg/kg/injection, schedule: Q01DX001 (ip), vehicle: saline with Tween-80
[13] = dose: 400.0 mg/kg/injection, schedule: Q01DX009 (ip), vehicle: saline with Tween-80
[14] = dose: 400.0 mg/kg/injection, schedule: Q04DX002 (ip), vehicle: saline with Tween-80
[15] = dose: 400.0 mg/kg/injection, schedule: Q04DX003 (ip), vehicle: saline with Tween-80
[16] = dose: 100.0 mg/kg/injection, schedule: Q01DX001 (ip), vehicle: saline
[17] = dose: 200.0 mg/kg/injection, schedule: Q01DX001 (ip), vehicle: saline
[18] = dose: 400.0 mg/kg/injection, schedule: Q01DX001 (ip), vehicle: saline
[19] = dose: 12.5 mg/kg/injection, schedule: Q01DX009 (ip), vehicle: saline
[20] = dose: 25.0 mg/kg/injection, schedule: Q01DX009 (ip), vehicle: saline
[21] = dose: 25.0 mg/kg/injection, schedule: Q04DX003 (ip), vehicle: saline
[22] = dose: 50.0 mg/kg/injection, schedule: Q01DX009 (ip), vehicle: saline
[23] = dose: 50.0 mg/kg/injection, schedule: Q04DX003 (ip), vehicle: saline
[24] = dose: 100.0 mg/kg/injection, schedule: Q01DX009 (ip), vehicle: saline
[25] = dose: 100.0 mg/kg/injection, schedule: Q04DX003 (ip), vehicle: saline
[26] = dose: 200.0 mg/kg/injection, schedule: Q04DX003 (ip), vehicle: saline
[27] = dose: 100.0 mg/kg/injection, schedule: Q04DX003 (ip), vehicle: Klucel (hydroxypropylcellulose) (HPC)
[28] = dose: 200.0 mg/kg/injection, schedule: Q04DX003 (ip), vehicle: Klucel (hydroxypropylcellulose) (HPC)
[29] = dose: 400.0 mg/kg/injection, schedule: Q04DX003 (ip), vehicle: Klucel (hydroxypropylcellulose) (HPC)

Measured: T/C

O=C(O)COc1cccc2ccc(Cl)cc12
inactive: [1] 101 % of control | [2] 90 % of control | [3] 96 % of control

O=C(CCCCCCCCC(=O)N/N=C/c1ccccc1)N/N=C/c1ccccc1
inactive: [4] 96 % of control and 90 % of control | [5] 102 % of control and 92 % of control | [6] 93 % of control and 97 % of control | [7] 97 % of control | [8] 88 % of control | [9] 93 % of control and 97 % of control | [10] 95 % of control and 87 % of control | [11] 97 % of control | [12] 86 % of control and 91 % of control | [13] 91 % of control and 92 % of control | [14] 93 % of control and 90 % of control | [15] 92 % of control

Oc1ccc2c(c1)Cc1cc3ccccc3nc1-2
inactive: dose: 50.0 mg/kg/injection, schedule: Q01DX001 (ip), vehicle: saline 98 % of control | [16] 95 % of control | [17] 97 % of control | [18] 93 % of control

Cc1ccc(S(=O)(=O)OCCC2(C)CC2)cc1
inactive: [4] 93 % of control | [8] 90 % of control | [12] 90 % of control

C1=CC2C3C=CC(CC3)C2CC1 (stereo not drawn)
inactive: [7] 106 % of control | [11] 97 % of control | [15] 87 % of control

N#Cc1c(C#N)c(/N=C/c2ccccc2)n(/N=C/c2ccccc2)c1N
inactive: dose: 87.5 mg/kg/injection, schedule: Q04DX003 (ip), vehicle: other 91 % of control | dose: 175.0 mg/kg/injection, schedule: Q04DX003 (ip), vehicle: other 93 % of control | dose: 350.0 mg/kg/injection, schedule: Q04DX003 (ip), vehicle: other 95 % of control

C#CC(O)(/C=C\Cl)CC (stereo not drawn)
inactive: [19] 102 % of control | [20] 93 % of control | [21] 101 % of control | [22] 94 % of control | [23] 95 % of control | [24] 86 % of control | [25] 97 % of control | [26] 106 % of control

CCCCCCCCC/C(C)=C1/SC(=S)NC1=O
inactive: [16] 102 % of control | [24] 88 % of control | [17] 93 % of control | [18] 95 % of control

CCC(C)C(C)(CO)CO (stereo not drawn)
inactive: [5] 102 % of control | [25] 90 % of control | [9] 88 % of control | [26] 93 % of control | [13] 89 % of control | dose: 400.0 mg/kg/injection, schedule: Q04DX003 (ip), vehicle: saline 97 % of control

CCCCc1ccc(C(=O)c2ccccc2)c2c1C(=O)c1ccccc1C2=O
inactive: dose: 100.0 mg/kg/injection, schedule: Q01DX009 (ip), vehicle: Klucel (hydroxypropylcellulose) (HPC) 97 % of control | [27] 92 % of control | dose: 200.0 mg/kg/injection, schedule: Q01DX009 (ip), vehicle: Klucel (hydroxypropylcellulose) (HPC) 94 % of control | [28] 92 % of control | dose: 400.0 mg/kg/injection, schedule: Q01DX009 (ip), vehicle: Klucel (hydroxypropylcellulose) (HPC) 95 % of control | [29] 96 % of control

COc1ccc(OC)c(NC(=O)Nc2ccc(CCO)cc2)c1
inactive: [24] 99 % of control | dose: 200.0 mg/kg/injection, schedule: Q01DX009 (ip), vehicle: saline 102 % of control | dose: 400.0 mg/kg/injection, schedule: Q01DX009 (ip), vehicle: saline 103 % of control

COc1ccc(C(=O)OCc2ccccc2CN2CCCCC2)cc1
inactive: [1] 102 % of control | [2] 102 % of control | [3] 86 % of control

O=C(CN1C(=O)C2CCCCC2C1=O)N1CC1 (stereo not drawn)
inactive: dose: 100.0 mg/kg/injection, schedule: Q01DX001 (ip), vehicle: carboxymethylcellulose (CMC) 110 % of control | dose: 200.0 mg/kg/injection, schedule: Q01DX001 (ip), vehicle: carboxymethylcellulose (CMC) 103 % of control

CCN(CC)CCOc1ccccc1C(=O)CCc1ccccc1
inactive: [19] 93 % of control | [20] 93 % of control | [21] 99 % of control | [22] 100 % of control | [23] 97 % of control | [25] 102 % of control

Cc1cc(C(=O)C(C#N)=Nc2ccc(N(C)C)cc2)c(CN2C(=O)c3ccccc3C2=O)c(=O)n1C
inactive: dose: 100.0 mg/kg/injection, schedule: Q01DX001 (ip), vehicle: water 92 % of control | dose: 200.0 mg/kg/injection, schedule: Q01DX001 (ip), vehicle: water 94 % of control | dose: 400.0 mg/kg/injection, schedule: Q01DX001 (ip), vehicle: water 94 % of control

COC1OC(CCl)C(O)C(O)C1O (stereo not drawn)
inactive: dose: 100.0 mg/kg/injection, schedule: Q04DX002 (ip), vehicle: saline 98 % of control | [7] 93 % of control | dose: 200.0 mg/kg/injection, schedule: Q04DX002 (ip), vehicle: saline 103 % of control | [11] 100 % of control | dose: 400.0 mg/kg/injection, schedule: Q04DX002 (ip), vehicle: saline 106 % of control | [15] 89 % of control

CCC(=O)Cc1ccc2[nH]c(C)cc(=O)c2c1
inactive: [16] 96 % of control | [17] 98 % of control | [18] 88 % of control

NC(N)=N/N=C/c1cccc(OCC(=O)O)c1
inactive: dose: 15.0 mg/kg/injection, schedule: Q01DX Z (ip), vehicle: carboxymethylcellulose (CMC) 87 % of control | dose: 30.0 mg/kg/injection, schedule: Q01DX Z (ip), vehicle: carboxymethylcellulose (CMC) 92 % of control | dose: 60.0 mg/kg/injection, schedule: Q01DX Z (ip), vehicle: carboxymethylcellulose (CMC) 92 % of control | dose: 60.0 mg/kg/injection, schedule: Q01DX Z (oral), vehicle: carboxymethylcellulose (CMC) 100 % of control | dose: 120.0 mg/kg/injection, schedule: Q01DX Z (ip), vehicle: carboxymethylcellulose (CMC) 94 % of control | dose: 120.0 mg/kg/injection, schedule: Q01DX Z (oral), vehicle: carboxymethylcellulose (CMC) 100 % of control | dose: 240.0 mg/kg/injection, schedule: Q01DX Z (oral), vehicle: carboxymethylcellulose (CMC) 94 % of control | dose: 480.0 mg/kg/injection, schedule: Q01DX Z (oral), vehicle: carboxymethylcellulose (CMC) 100 % of control

O=C(NC/C(Br)=C/Br)Nc1c(Cl)cccc1Cl
inactive: dose: 100.0 mg/kg/injection, schedule: Q01DX001 (ip), vehicle: Klucel (hydroxypropylcellulose) (HPC) 94 % of control | [27] 96 % of control | dose: 200.0 mg/kg/injection, schedule: Q01DX001 (ip), vehicle: Klucel (hydroxypropylcellulose) (HPC) 91 % of control | [28] 89 % of control | dose: 400.0 mg/kg/injection, schedule: Q01DX001 (ip), vehicle: Klucel (hydroxypropylcellulose) (HPC) 91 % of control | [29] 93 % of control

COc1cc(OC(C)=O)c(OC(C)=O)cc1OC(C)=O
inactive: [5] 98 % of control | [9] 96 % of control | [13] 100 % of control

CCc1cccc(CC)c1NC(=O)Nc1ccc(Br)cc1
inactive: [23] 87 % of control | [16] 86 % of control | [25] 87 % of control | [17] 89 % of control | [26] 92 % of control

Oc1ccc2ccccc2c1/C=N\Nc1ccccn1
inactive: [6] 92 % of control | [10] 92 % of control | [14] 89 % of control

CCOC(=O)CNC(=O)Nc1ccc(C(=O)O)cc1
inactive: [5] 93 % of control | [9] 100 % of control

CCOC(=O)Nc1nccs1
inactive: [7] 105 % of control | [11] 96 % of control

COc1ccccc1-c1c(C(=O)O)cccc1[N+](=O)[O-]
inactive: [5] 98 % of control | [9] 106 % of control | [13] 101 % of control

OC1(c2ccccc2)CCN(C/C=C/c2ccccc2Cl)CC1
inactive: [7] 92 % of control | [11] 93 % of control | [15] 90 % of control
